Data reported in PMC11191402, “High-Affinity NIR-Fluorescent Inhibitors for Tumor Imaging via Carbonic Anhydrase IX” (Bioconjugate Chemistry, 2024).
Where “and” joins values, the source holds several entries; their conditions need not be identical. Identical values can stand only once.

Assays:
human recombinant CAXII = target: T1, human recombinant CAXII (Homo sapiens, UniProt O43570); assay: Fluorescence-based thermal shift assay (FTSA), CAXII; assay type: binding; settings: 37 °C, pH 7.0
T1 construct: Most isozymes were truncated, and only the catalytic domains of the proteins were produced; made in house; host or cells: bacterial expression system
Experimental: (§1) The binding affinities of the four NIR-fluorescent compounds to 12 catalytically active recombinant CA isozymes were determined by the fluorescence-based thermal shift assay (FTSA), and the dissociation constants (Kd’s) at physiological pH (pH 7.0) and 37 °C are listed in Table 1.
(§2) All 12 catalytically active human CA isozymes were prepared recombinantly as previously described. Most isozymes were truncated, and only the catalytic domains of the proteins were produced.[9],[56] All isozymes were expressed in a bacterial expression system except that CAIX was expressed in mammalian cells. The proteins were chromatographically purified via immobilized metal affinity chromatography, ion-exchange, or p-aminomethylbenzenesulfonamide-sepharose affinity chromatography. Protein purity was confirmed by SDS-PAGE, and MW was confirmed by mass spectrometry with 1 Da precision, as predicted from theoretical protein sequence.
(§3) The fluorescence-based thermal shift assay (FTSA) was used to determine the binding affinity of compounds for all catalytically active CA isozymes. The assay is based on the thermal stabilization of proteins by bound ligands and distinguishes itself in its ability to determine extremely high affinity (picomolar Kd) of compound binding to CAIX. The experiments were performed with a QIAGEN Rotor-Gene Q instrument using either the blue channel (365 ± 20 nm excitation and 460 ± 15 nm emission detection) or the green channel (470 ± 10 nm excitation and 510 ± 5 nm detection). The protein solution, in the absence and presence of various compound concentrations ranging from 3 to 200 μM (2× dilutions), was heated from 25 to 99 °C (heating rate, 1 °C/min). The CA isozyme melting temperature Tm was determined by following the fluorescence of 8-anilino-1-naphthalenesulfonate (ANS) or Glomelt dye. The samples consisted of 5 μM protein (or 10 μM CAIV), different concentrations of the tested compound, and 50 μM ANS or 200× diluted Glomelt in 50 mM sodium phosphate buffer (at pH 7.0) containing 100 mM sodium chloride and 2–4% (v/v) dimethyl sulfoxide. To obtain the dissociation constant (at 37 °C), data analysis was performed, and the curves were fit using the Thermott Web server.[57]

human recombinant CAXIII = target: T2, human recombinant CAXIII (Homo sapiens, UniProt Q8N1Q1); assay: Fluorescence-based thermal shift assay (FTSA), CAXIII; assay type: binding; settings: 37 °C, pH 7.0
T2 construct: made in house; host or cells: bacterial expression system
Experimental: as §1, §2
as §3, with “To obtain the dissociation constant (at 37 °C), data analysis was performed, and the curves were fit using the Thermott Web server.[57]” left out

[1] = Absorption, emission and fluorescence quantum yield measurement; assay type: physicochemical; settings: for λabs: absorption spectrum; for λem (fluorescence maximum): emission spectrum
Experimental: Figure S1. Absorption and emission spectra of NIR inhibitors. GZ22-1 λ abs= 783 nm, λ em= 807
Norm. absorption (arb. units)
Norm. photoluminescence (arb. units)
Norm absorption (arb. units) […]
Table S1. Fluorescence quantum yield comparison of NIR-fluorescent compounds. Compound
concentration was 100 nM in PBS. L a-c – excitation radiation integrals, P b-c – fluorescence
Nr. Compound Excitation La Lb Lc A(1) Pb Pc QY(2)
(1)Sample absorbance . (2)Fluorescence quantum yield: .LPc―(1―A)Pb […]

human recombinant CAIX = target: T3, human recombinant CAIX (Homo sapiens, UniProt Q16790); assay: Fluorescence-based thermal shift assay (FTSA), CAIX; assay type: binding; settings: 37 °C, pH 7.0
T3 construct: Most isozymes were truncated, and only the catalytic domains of the proteins were produced; made in house; host or cells: mammalian cells
Experimental: as §1, §2, §3

[2] = test system: HeLaCAIX^WT versus HeLaCAIX^KO tumors; assay: NIR imaging of HeLa xenograft tumors in nude mice; assay type: in vivo; settings: for compound uptake in HeLaCAIX^WT tumors compared to HeLaCAIX^KO tumors: I.V. 2 mg/kg once, imaged every 24 h
Experimental: The HeLaCAIX^WT and HeLaCAIX^KO cells were injected subcutaneously (S.Q.) into opposite flanks of nude mice, 3 × 10^6 cells per injection. Once tumors reached the palpable size, we performed imaging using the UVITEC AllianceQ9 Imager system. The images were obtained every 24 h after intravenous (I.V.) compound injection into a tail vein. To analyze fluorescent compound uptake, two best candidate compounds were chosen, AZ21-6 and GZ22-4. Compound GZ22-4 was selected because of the photostability and good quantum yield (Table S1), and the fluorescence maximum of AZ21-6 closely resembled the center of the NIR filter of the imaging system. Both compounds had the best solubility properties and good in vitro binding to cells.
Female nude mice (CR ATH HO Code 24106216), 5–6 weeks old, were obtained from Charles River Laboratories. Animals were housed, bred, and handled in the Department of Animal Models Animal Facility at the Life Sciences Center, Vilnius University, Lithuania, with a 12 h light–dark cycle, at 21–23 °C and 40–60% humidity. Animals were fed with an irradiated cholorophyll-deficient diet (Altromin, #C1086194) and water ad libitum. All experimental procedures conformed to Directive 2010/63/EU requirements and were approved by the Lithuanian State Food and Veterinary Service (Approval no G2-194, 2021-11-09).
Before injection into animals, mycoplasma-free cells in the exponential growth phase were harvested, washed, and resuspended in PBS. 8–12 weeks old female nude mice were inoculated S.Q. with 3 × 10^6 HeLaCAIX^WT cells in 100 μL of PBS into the right flank of the mice, and the same number of HeLaCAIX^KO cells were injected into the left flank of the same mouse. Once tumors reached a suitable size for imaging, GZ22-4 or AZ21-6 compounds were injected I.V. at a dose of 2 mg/kg/dose once. Mice were imaged every 24 h postinjection using isoflurane anesthesia with an Alliance^TM bQ9 Imager system. Images were quantified using the UVIBAND MAX analysis software system. […]

human recombinant CAII = target: T4, human recombinant CAII (Homo sapiens, UniProt P00918); assay: Fluorescence-based thermal shift assay (FTSA), CAII; assay type: binding; settings: 37 °C, pH 7.0
T4 construct: made in house; host or cells: bacterial expression system
Experimental: as §1, §2, §3

human recombinant CAIII = target: T5, human recombinant CAIII (Homo sapiens, UniProt P07451); assay: Fluorescence-based thermal shift assay (FTSA), CAIII; assay type: binding; settings: 37 °C, pH 7.0
T5 construct: made in house; host or cells: bacterial expression system
Experimental: as §1, §2, §3

human recombinant CAVII = target: T6, human recombinant CAVII (Homo sapiens, UniProt P43166); assay: Fluorescence-based thermal shift assay (FTSA), CAVII; assay type: binding; settings: 37 °C, pH 7.0
T6 construct: made in house; host or cells: bacterial expression system
Experimental: as §1, §2
as §3, with “To obtain the dissociation constant (at 37 °C), data analysis was performed, and the curves were fit using the Thermott Web server.[57]” left out

human recombinant CAIV = target: T7, human recombinant CAIV (Homo sapiens, UniProt P22748); assay: Fluorescence-based thermal shift assay (FTSA), CAIV; assay type: binding; settings: 37 °C, pH 7.0
T7 construct: Most isozymes were truncated, and only the catalytic domains of the proteins were produced; made in house; host or cells: bacterial expression system
Experimental: as §1, §2, §3

human recombinant CAVI = target: T8, human recombinant CAVI (Homo sapiens, UniProt P23280); assay: Fluorescence-based thermal shift assay (FTSA), CAVI; assay type: binding; settings: 37 °C, pH 7.0
T8 construct: Most isozymes were truncated, and only the catalytic domains of the proteins were produced; made in house; host or cells: bacterial expression system
Experimental: as §1, §2, §3

human recombinant CAVB = target: T9, human recombinant CAVB (Homo sapiens, UniProt Q9Y2D0); assay: Fluorescence-based thermal shift assay (FTSA), CAVB; assay type: binding; settings: 37 °C, pH 7.0
T9 construct: Most isozymes were truncated, and only the catalytic domains of the proteins were produced; made in house; host or cells: bacterial expression system
Experimental: as §1, §2
(§4) The fluorescence-based thermal shift assay (FTSA) was used to determine the binding affinity of compounds for all catalytically active CA isozymes. […] The CA isozyme melting temperature Tm was determined by following the fluorescence of 8-anilino-1-naphthalenesulfonate (ANS) or Glomelt dye. […]

human recombinant CAI = target: T10, human recombinant CAI (Homo sapiens, UniProt P00915); assay: Fluorescence-based thermal shift assay (FTSA), CAI; assay type: binding; settings: 37 °C, pH 7.0
T10 construct: made in house; host or cells: bacterial expression system
Experimental: as §1, §2, §4

T5 sequence (P07451 whole entry): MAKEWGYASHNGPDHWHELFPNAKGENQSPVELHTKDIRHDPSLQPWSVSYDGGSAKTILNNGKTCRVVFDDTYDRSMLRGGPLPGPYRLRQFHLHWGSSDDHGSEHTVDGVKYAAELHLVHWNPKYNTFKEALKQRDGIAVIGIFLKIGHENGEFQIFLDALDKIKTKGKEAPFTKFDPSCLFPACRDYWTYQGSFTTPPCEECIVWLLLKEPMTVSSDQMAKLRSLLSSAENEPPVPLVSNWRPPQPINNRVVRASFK
T7 sequence (P22748 21-285 limits assumed): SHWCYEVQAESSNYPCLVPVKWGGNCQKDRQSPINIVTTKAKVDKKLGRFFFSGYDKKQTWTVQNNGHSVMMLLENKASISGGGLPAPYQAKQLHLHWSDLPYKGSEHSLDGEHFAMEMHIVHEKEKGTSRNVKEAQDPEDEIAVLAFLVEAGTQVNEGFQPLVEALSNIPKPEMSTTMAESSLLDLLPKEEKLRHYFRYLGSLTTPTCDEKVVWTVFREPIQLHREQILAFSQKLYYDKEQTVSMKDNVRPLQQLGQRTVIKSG
T2 sequence (Q8N1Q1 whole entry): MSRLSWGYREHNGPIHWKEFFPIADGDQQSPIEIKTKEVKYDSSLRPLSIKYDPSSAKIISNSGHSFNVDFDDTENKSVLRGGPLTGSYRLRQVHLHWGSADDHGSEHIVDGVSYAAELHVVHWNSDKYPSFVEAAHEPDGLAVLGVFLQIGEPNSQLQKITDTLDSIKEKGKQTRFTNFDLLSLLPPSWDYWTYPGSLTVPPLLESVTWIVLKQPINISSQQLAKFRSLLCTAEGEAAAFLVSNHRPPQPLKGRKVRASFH
T8 sequence (P23280 21-278 limits assumed): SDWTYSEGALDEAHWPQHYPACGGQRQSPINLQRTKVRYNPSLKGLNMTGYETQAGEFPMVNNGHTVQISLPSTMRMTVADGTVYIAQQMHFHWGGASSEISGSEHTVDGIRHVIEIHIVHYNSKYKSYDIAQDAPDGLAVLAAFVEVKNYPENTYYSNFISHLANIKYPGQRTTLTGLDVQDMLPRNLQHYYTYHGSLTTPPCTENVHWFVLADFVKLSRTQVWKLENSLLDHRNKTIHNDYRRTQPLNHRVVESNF
T6 sequence (P43166 whole entry): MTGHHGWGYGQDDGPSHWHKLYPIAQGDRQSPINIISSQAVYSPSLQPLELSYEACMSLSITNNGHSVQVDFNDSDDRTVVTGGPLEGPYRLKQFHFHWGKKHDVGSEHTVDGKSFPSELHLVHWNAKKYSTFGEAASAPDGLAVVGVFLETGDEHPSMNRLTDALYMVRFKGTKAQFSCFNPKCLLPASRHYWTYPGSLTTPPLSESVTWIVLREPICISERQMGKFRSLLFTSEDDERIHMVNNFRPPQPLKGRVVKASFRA
T1 sequence (O43570 30-289 limits assumed): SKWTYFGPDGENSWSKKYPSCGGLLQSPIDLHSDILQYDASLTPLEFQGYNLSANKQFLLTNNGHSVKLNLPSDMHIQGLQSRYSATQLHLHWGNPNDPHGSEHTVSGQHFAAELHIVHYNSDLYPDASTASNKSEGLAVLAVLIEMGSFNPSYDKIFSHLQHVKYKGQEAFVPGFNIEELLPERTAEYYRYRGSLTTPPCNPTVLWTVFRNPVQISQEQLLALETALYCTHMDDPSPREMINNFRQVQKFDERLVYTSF
T10 sequence (P00915 whole entry): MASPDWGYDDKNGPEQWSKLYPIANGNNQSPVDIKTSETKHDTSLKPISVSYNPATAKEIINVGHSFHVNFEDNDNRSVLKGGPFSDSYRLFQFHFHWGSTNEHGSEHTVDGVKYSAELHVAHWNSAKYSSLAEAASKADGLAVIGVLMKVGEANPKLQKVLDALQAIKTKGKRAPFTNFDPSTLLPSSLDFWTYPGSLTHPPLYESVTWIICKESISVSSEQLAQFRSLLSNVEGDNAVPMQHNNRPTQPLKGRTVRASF
T9 sequence (Q9Y2D0 37-296 limits assumed): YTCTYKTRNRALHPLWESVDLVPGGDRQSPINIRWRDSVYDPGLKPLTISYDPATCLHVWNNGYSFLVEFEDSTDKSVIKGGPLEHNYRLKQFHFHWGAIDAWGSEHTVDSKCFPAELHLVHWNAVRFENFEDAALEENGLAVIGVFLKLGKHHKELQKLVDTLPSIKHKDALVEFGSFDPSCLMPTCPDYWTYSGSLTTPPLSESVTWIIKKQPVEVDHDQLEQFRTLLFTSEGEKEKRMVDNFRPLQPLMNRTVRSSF

SMILES | Kd (human recombinant CAXII) [nM] | Kd (human recombinant CAXIII) [nM] | λabs [1] [nm] | λem (fluorescence maximum) [1] [nm] | Kd (human recombinant CAIX) | compound uptake in HeLaCAIX^WT tumors compared to HeLaCAIX^KO tumors [2] | clearance from nontumor locations ([2]; I.V. 2 mg/kg, daily images) | Kd (human recombinant CAII) [nM] | Kd (human recombinant CAIII) [nM] | Kd (human recombinant CAVII) [nM] | Kd (human recombinant CAIV) [nM] | Kd (human recombinant CAVI) [nM] | Kd (human recombinant CAVB) [nM] | QY (fluorescence quantum yield) ([1]; 100 nM in PBS, excitation 650nm) | Kd (human recombinant CAI) [nM]
CC1(C)C(/C=C/C2=C(Oc3ccc(CCC(=O)NCCOCCOCCOCCOCCOCCOCCOCCOCCOCCOCCOCCNC(=O)CCS(=O)(=O)c4c(F)c(F)c(S(N)(=O)=O)c(F)c4NC4CCCCCCC4)cc3)C(=C/C=C3\N(CCCCS(=O)(=O)[O-])c4ccccc4C3(C)C)/CCC2)=[N+](CCCCS(=O)(=O)[O-])c2ccccc21.[Na+] [GZ22-4, Sodium 4-((Z)-2-((E)-2-(2-(4-(43-((2-(Cyclooctylamino)-3,5,6-trifluoro-4-sulfamoylphenyl)sulfonyl)-3,41-dioxo-7,10,13,16,19,22,25,28,31,34,37-undecaoxa-4,40-diazatritetracontyl)phenoxy)-3-((E)-2-(3,3-dimethyl-1-(4-sulfonatobutyl)-3H-indol-1-ium-2-yl)vinyl)cyclohex-2-en-1-ylidene)ethylidene)-3,3-dimethylindolin-1-yl)butane-1-sulfonate] | 80 | 5 | 783 | 807 | 0.17 nM and 0.2 nM | preferential uptake | faster clearance from nontumor locations | 200 | 5000 | 40 | 8000 | 500 | – | – | –
CC1(C)C(/C=C/C2=C(NCCCOCCOCCOCCCNC(=O)CCC(=O)NCCS(=O)(=O)c3c(F)c(F)c(S(N)(=O)=O)c(F)c3NC3CCCCCCC3)C(=C/C=C3\N(CCCCS(=O)(=O)[O-])c4ccccc4C3(C)C)/CCC2)=[N+](CCCCS(=O)(=O)[O-])c2ccccc21.[Na+] [AZ21-6, Sodium 4-((Z)-2-((E)-2-(2-((1-((2-(Cyclooctylamino)-3,5,6-trifluoro-4-sulfamoylphenyl)sulfonyl)-4,7-dioxo-12,15,18-trioxa-3,8-diazahenicosan-21-yl)amino)-3-((E)-2-(3,3-dimethyl-1-(4-sulfonatobutyl)-3H-indol-1-ium-2-yl)vinyl)cyclohex-2-en-1-ylidene)ethylidene)-3,3-dimethylindolin-1-yl)butane-1-sulfonate] | 50 | 10 | 637 | – | 0.3 nM | preferential uptake | – | 2000 | 30000 | 60 | 8000 | 1000 | 50 | 0.43 | 20000
CC1(C)C(/C=C/C2=C(Oc3cccc(CC(=O)NCCCOCCOCCOCCCNC(=O)CCS(=O)(=O)c4c(F)c(F)c(S(N)(=O)=O)c(F)c4NC4CCCCCCC4)c3)C(=C/C=C3\N(CCCCS(=O)(=O)[O-])c4ccccc4C3(C)C)/CCC2)=[N+](CCCCS(=O)(=O)[O-])c2ccccc21.[Na+] [GZ21-19, Sodium 4-((Z)-2-((E)-2-(2-(3-(20-((2-(Cyclooctylamino)-3,5,6-trifluoro-4-sulfamoylphenyl)sulfonyl)-2,18-dioxo-7,10,13-trioxa-3,17-diazaicosyl)phenoxy)-3-((E)-2-(3,3-dimethyl-1-(4-sulfonatobutyl)-3H-indol-1-ium-2-yl)vinyl)cyclohex-2-en-1-ylidene)ethylidene)-3,3-dimethylindolin-1-yl)butane-1-sulfonate] | 60 | – | 783 | 805 | 0.2 nM | – | – | 400 | 20000 | – | 2000 | 700 | – | – | 10000
CC1(C)C(/C=C/C2=C(Oc3ccc(CCC(=O)NCCCOCCOCCOCCCNC(=O)CCS(=O)(=O)c4c(F)c(F)c(S(N)(=O)=O)c(F)c4NC4CCCCCCC4)cc3)C(=C/C=C3\N(CCCCS(=O)(=O)[O-])c4ccccc4C3(C)C)/CCC2)=[N+](CCCCS(=O)(=O)[O-])c2ccccc21.[Na+] [GZ22-1, Sodium 4-((Z)-2-((E)-2-(2-(4-(21-((2-(Cyclooctylamino)-3,5,6-trifluoro-4-sulfamoylphenyl)sulfonyl)-3,19-dioxo-8,11,14-trioxa-4,18-diazahenicosyl)phenoxy)-3-((E)-2-(3,3-dimethyl-1-(4-sulfonatobutyl)-3H-indol-1-ium-2-yl)vinyl)cyclohex-2-en-1-ylidene)ethylidene)-3,3-dimethylindolin-1-yl)butane-1-sulfonate] | 200 | 8 | 783 | 807 | 0.3 nM | – | – | 20 | 30000 | 30 | 7000 | 700 | – | – | –
